# Reference: a melting point compilation (Tetko et al.; mined from patent text by program, amines drawn as free bases though some values may be those of a salt)
row,Compound,melting point
1,CC(C)c1cccc(C(C)C)c1N1C(=O)c2cccc3c(C(N)=O)ccc(c23)C1=O,233 °C
2,ClCCOc1ccc(Cl)c2[nH]ccc12,68 to 72 °C
3,CCOC1=Nc2c(C)cccc2Nc2ncccc21,135 to 136 °C
4,CCc1cc(C(=O)OC)c(C2=NC(=O)C(C)(C(C)C)N2)nc1COC (centres undefined),87 to 90 °C
5,Cc1ncccc1Oc1ccc(C(=N)Nc2cc(Cl)cc(NC(=O)C=Cc3ccccc3C(F)(F)F)c2)cc1,114 to 119 °C
6,CCc1c(N)nc(-c2ccc(C(F)(F)F)cc2)nc1C(=O)OC,123 to 124 °C
7,COc1ccc(-c2cc(=O)c3c(OC)cc(OC)c(C4=CCN(C)CC4)c3o2)c(OC)c1OC,209 to 210 °C
8,O=c1c2ccccc2cc(Br)c2ccncc12,167 to 169 °C
9,COc1ccc(CCNC[C@H](O)COc2ccc(-c3nc(Br)c[nH]3)cc2Cl)cc1OC,172 to 174 °C
10,CCCOc1ccc(C=CC(=O)N2CCN(C)CC2)cc1-c1nc2c(C)cccc2c(=O)[nH]1,184 to 185 °C
11,COC(=O)c1cc(C(=O)OC)c(NCCCc2ccccc2)cn1,102 to 104 °C
12,O=CC=Cc1c(C2CC2)nc2ccccc2c1-c1ccc(F)cc1,146 to 147 °C
13,O=C(O)Cc1cccc(C(=O)c2ccc(OCc3ccc4ccccc4n3)cc2)c1,146 to 147 °C
14,CC(CNS(=O)(=O)c1ccccc1)c1ccc(OCC(=O)O)c(F)c1 (centres undefined),49 to 51 °C
15,O=C(NC(Cc1ccc(OCc2ccccc2F)cc1)C(=O)O)c1cn2ccc(-c3ccc(Cl)cc3)cc2n1 (centres undefined),250 to 252 °C
16,CC1C(=O)Oc2cc(N3CCCCC3)ccc21 (centres undefined),78 to 80 °C
17,Cc1c(-c2ccncc2)sc2c1C(=O)CCC2,129 to 130 °C
18,CC(C)(C)OC(=O)NC(CC(=O)O)c1ccc(Cl)c(Cl)c1 (centres undefined),128 °C
19,Oc1c(-c2nnn[nH]2)cnc2c(Br)cccc12,> 260 °C
20,CNc1nnc2ccc(-c3cccc(N(C)C(C)=O)c3)nn12,213 to 215 °C
21,CN1C(=O)CN=C(c2cccc(Cl)c2)c2cc(C(O)(c3ccc(Cl)cc3)c3cncn3C)ccc21 (centres undefined),226 °C
22,NC(=NO)c1ncn2c1COC(=O)c1c(Cl)cccc1-2,252 to 254 °C

row,Compound,melting point
1,CC1(C)COC(c2ccccc2)(c2ccc(N)c([N+](=O)[O-])c2)OC1,140 °C
2,O=C(O)COc1ccccc1N1CCN(c2ccncc2)CC1,294 to 296 °C
3,CN(C)C(=O)CCC(NC(=O)C=Cc1ccco1)C(=O)N(C)C (centres undefined),178 to 180 °C
4,Cc1cc(-c2noc(C(F)(F)F)n2)cc(C)c1OCCCc1ccc(CCl)nc1,79 to 81 °C
5,CCC(=O)NC1CCc2c([nH]c3ccccc23)C1 (centres undefined),169 to 170 °C
6,CC1=CCCC2C1(C)CCC(C)C2(C)CC1=CC(=O)C=CC1=O (centres undefined),62 to 64 °C
7,CC(C)n1c(NN)nc2ccccc2c1=O,123 to 124 °C
8,CCNc1ccc(-c2nnsc2-c2ccc(NCC)cc2)cc1,96.5 to 98.5 °C
9,CCN1c2cc(C)c(C)cc2N(C)C(=O)c2cccnc21,140 to 144 °C
10,CNC(=O)c1cc2[nH]cnc2c(Cl)c1NC(=O)c1cc(C(F)(F)F)nn1-c1ncccc1Cl,190 to 192 °C
11,COc1ccc(CNc2cc3c(Nc4ccc(F)c(C(F)(F)F)c4)ncnc3cn2)cc1,202 to 204 °C
12,COc1cccc([C@H]2O[C@H](CC(=O)Nc3cccc(CCC(=O)O)c3)C(=O)N(CC(C)(C)CO)c3ccc(Cl)cc32)c1OC,141 to 144 °C
13,Cc1nc(N)nc(N)c1N1CCN(c2ccc(C(F)(F)F)cc2)CC1,255 to 258 °C
14,CC(=O)Nc1cc(F)ccc1SCC#N,113 to 115 °C
15,CCCCCCCCCCCC(=O)N[C@H]1CCCNC(=O)C1,93 to 94 °C
16,COc1nc(C)cnc1NS(=O)(=O)c1cccnc1-c1ccc(C(C)C)cc1,74 to 75 °C
17,O=c1c2ccc(Cl)cc2[nH]c2c(O)nn(CC#Cc3ccc(Cl)cc3)c(=O)c12,251 to 252 °C
18,CCCCNc1cc(CNC(C)=O)cc(S(N)(=O)=O)c1Oc1ccccc1,190 to 191 °C
19,O=C(c1ccc(F)cc1Cl)N1Cc2cccn2Cc2ccccc21,110 to 112 °C
20,Nc1cccc(N)c1Cl,82 to 83.5 °C
21,COc1ccc(C(=O)Nc2c(C)c(C)c3c(c2C)C(c2ccc(C(C)C)cc2)C2(CCN(C)CC2)O3)cc1 (centres undefined),277 to 278 °C

# Second part, the compound after the results:
row,melting point,Compound
1,135 to 140 °C,C[N+]([O-])(c1cnccc1[N+](=O)[O-])n1cccc1 (centres undefined)
2,280 °C,CCCCCCCCCCc1c(C(=O)O)sc2c1sc1c(CCCCCCCCCC)c(C(=O)O)sc12
3,204 to 205 °C,N#CCn1nnc(NC(=O)C2c3ccccc3Oc3ccccc32)n1
4,46 to 47 °C,CSc1ccc(C(=O)CC(=O)C2CC2)c2c1OC(F)(F)O2
5,335 to 337 °C,O=C1c2ccccc2C(c2c(O)c3ccccc3oc2=O)N1c1ccccc1 (centres undefined)
6,106 to 109 °C,COC(=O)C1Cc2c([nH]c3ccccc23)C(c2ccc(Cl)cc2Cl)N1C(=O)CCl (centres undefined)
7,175 to 176 °C,Cc1cc(C[C@@H](NC(=O)c2cccc3c2C=CCCC3)[C@@H](O)c2ccc(F)cc2)cc(OC(F)(F)C(F)F)c1 (racemic)
8,133 °C,O=C1C(=O)N(c2ccc(Cl)cc2[N+](=O)[O-])C(=O)N1c1cccc(Cl)c1
9,112 to 113 °C,c1ccc(COc2cccc(-c3nc(COc4ccc(CCCn5ccnc5)cc4)co3)c2)cc1
10,191 to 193 °C,COc1ccc([C@@H](CC(N)=O)N2Cc3ccccc3C2=O)cc1OC
11,53 to 56 °C,Cc1cc(F)c(F)c(C=O)c1O
12,90 to 92 °C,COc1cccc2ccc(Cl)nc12
13,97 to 98 °C,Cc1ccc(-c2cc(C(F)(F)F)nn2-c2ccc(S(=O)(=O)Cl)cc2)cc1
14,43 to 44 °C,Cc1ccc2c(c1C)C(=O)CC2
15,56.5 to 57 °C,N#Cc1nc(Cl)sc1Cl
16,129 to 130 °C,CCOc1cc2c(cc1O)C(=O)CC(C)(C)O2

row,melting point,Compound
1,> 300 °C,CC(=O)Nc1cccc2c1C(=O)c1c-2n[nH]c1-c1cccnc1
2,150 to 153 °C,O=C1CC2(CC=CC2)CC(=O)N1
3,97 to 98 °C,COc1ccc(C(=O)C2CCCCC2)c(Cl)c1Cl
4,103 to 106 °C,C[C@H](C(=O)O)c1ccc2cc(OCCCCCCc3ccc(O)c(O)c3)ccc2c1
5,190 °C,O=C1NCCCN1N=Cc1ccccc1
6,160 to 162 °C,O=C(CCC(=O)N1CCC(c2ccc(Cl)cc2)CC1)c1ccc2c(c1)CCN(C1CCCC1)CC2
7,76 to 78 °C,COC(=O)c1cc(N)cs1
8,199 to 201 °C,CNc1ccccc1C(=O)Cc1nnn[nH]1
9,151 to 153 °C,COC(=O)C(=NO)c1ccccc1
10,246 to 247 °C,CCC(C)(C)c1cc(-c2ccc(F)c(C=C3SC(N4CCOCC4)=NC3=O)c2)ccc1O
11,98.5 to 99.5 °C,CC(C)c1cn(C)cc(-c2cccc(C(F)(F)F)c2)c1=O
12,124 °C,COc1cc(-c2ccc(C(C)C)cc2)cc2oc(=O)c(Cl)c(C)c12
13,73 to 74 °C,Nc1ccc(CCc2nnco2)cc1
14,190 to 194 °C,Cn1nc(C(F)(F)F)c(C(=O)O)c1Sc1ccc(F)cc1
15,110 °C,CCOC(=O)c1nc2ccc(CO)cc2n1OC
